Among the data in patent US8735414B2 (priority 2009, dated 2014) are IC50 and melting point values, retold here.

The IC50 is the point on the concentration scale where inhibition reaches its midpoint. As usually defined, the melting point is the temperature, or range, at which the solid turns liquid.

Where only a bound is given, the exact number is not on record here.

The subject of series [1] is bicistronic HCV replicon (replicon RNA, GenBank Accession No. AJ242654). Description: HCV Replicon Assay. Particulars: Hepatitis C virus, 72 h, read-out: Replicon IC50. The class given is cell-based. For orientation: Replicon systems follow genome replication, usually without infectious particles.

As to `Cc1ccc2c(C#N)c(-c3ccc(S(=O)(=O)N[C@@H](C)C(F)(F)F)cn3)n(C3CCCCC3)c2c1` [compound 354, 6-(3-cyano-1-cyclohexyl-6-methyl-1H-indol-2-yl)-N-[(2S)-1,1,1-trifluoropropan-2-yl]pyridine-3-sulfonamide], the melting point was 207 to 212 °C. In addition, in series [1], the IC50 was < 500 nM.

As to `Cc1ccc2c(C#N)c(-c3ccc(S(=O)(=O)N[C@@H](C)C(F)(F)F)cn3)n(C(C)C)c2c1` [compound 355, 6-[3-cyano-6-methyl-1-(propan-2-yl)-1H-indol-2-yl]-N-[(2S)-1,1,1-trifluoropropan-2-yl]pyridine-3-sulfonamide], the melting point was in the range of 211 to 216 °C. In addition, the IC50 in series [1] was < 500 nM.

For `Cc1ccc(-n2c(-c3ccc(S(=O)(=O)NC(CF)CF)cn3)c(C#N)c3cc(F)ccc32)cc1` [compound 356, 6-[3-cyano-5-fluoro-1-(4-methylphenyl)-1H-indol-2-yl]-N-(1,3-difluoropropan-2-yl)pyridine-3-sulfonamide], the melting point was in the range of 208 to 210 °C. Also, in series [1], the IC50 was < 500 nM.

Turning to `Cc1ccc(-n2c(-c3ncc(S(=O)(=O)NC(C)C)cn3)c(C#N)c3cc(F)ccc32)cc1` [compound 357, 2-[3-cyano-5-fluoro-1-(4-methylphenyl)-1H-indol-2-yl]-N-(propan-2-yl)pyrimidine-5-sulfonamide], the melting point fell in the range of 200 to 202 °C. Moreover, the IC50 in series [1] was < 500 nM.

The compound `C[C@H](NS(=O)(=O)c1ccc(-c2c(C#N)c3ccc(OC(F)(F)F)cc3n2C2CCCC2)nc1)C(F)(F)F` [compound 358, 6-[3-cyano-1-cyclopentyl-6-(trifluoromethoxy)-1H-indol-2-yl]-N-[(2S)-1,1,1-trifluoropropan-2-yl]pyridine-3-sulfonamide] gave a melting point of 168 to 170 °C. For the same compound, in series [1], the IC50 was < 500 nM.

`CC(C)n1c(-c2ccc(S(=O)(=O)N[C@@H](C)C(F)(F)F)cn2)c(C#N)c2ccc(OC(F)F)cc21` [compound 359, 6-[3-cyano-6-(difluoromethoxy)-1-(propan-2-yl)-1H-indol-2-yl]-N-[(2S)-1,1,1-trifluoropropan-2-yl]pyridine-3-sulfonamide]: the melting point fell in the range of 163 to 166 °C. Also, the IC50 in series [1] was < 500 nM.

`C[C@H](NS(=O)(=O)c1ccc(-c2c(C#N)c3cc(F)c(Cl)cc3n2C2CCC2)nc1)C(F)(F)F` [compound 360, 6-(6-chloro-3-cyano-1-cyclobutyl-5-fluoro-1H-indol-2-yl)-N-[(2S)-1,1,1-trifluoropropan-2-yl]pyridine-3-sulfonamide] displayed a melting point of 203 to 206 °C. Besides, the IC50 in series [1] is < 500 nM.

With `N#Cc1c(-c2ncc(S(=O)(=O)NC(CF)CF)cn2)n(C2CCC2)c2cc(CF)ccc12` [compound 361, 2-[3-cyano-1-cyclobutyl-6-(fluoromethyl)-1H-indol-2-yl]-N-(1,3-difluoropropan-2-yl)pyrimidine-5-sulfonamide], the melting point was in the range of 226 to 232 °C. Moreover, the IC50 in series [1] was < 500 nM.

As for `C[C@H](NS(=O)(=O)c1ccc(-c2c(C#N)c3ccc(CF)cc3n2C2CCC2)nc1)C(F)(F)F` [compound 362, 6-[3-cyano-1-cyclobutyl-6-(fluoromethyl)-1H-indol-2-yl]-N-[(2S)-1,1,1-trifluoropropan-2-yl]pyridine-3-sulfonamide], the melting point lay within 205 to 209 °C. The IC50 in series [1] is < 500 nM.

`C[C@H](NS(=O)(=O)c1ccc(-c2c(C#N)c3ccc(C(F)F)cc3n2C2CCC2)nc1)C(F)(F)F` [compound 363, 6-[3-cyano-1-cyclobutyl-6-(difluoromethyl)-1H-indol-2-yl]-N-[(2S)-1,1,1-trifluoropropan-2-yl]pyridine-3-sulfonamide] showed a melting point of 198 to 207 °C. For the same compound, the IC50 in series [1] is < 500 nM.
